Laboratory results from article PMC10145610, “In Vitro and In Silico Investigation of Polyacetylenes from Launaea capitata (Spreng.) Dandy as Potential COX-2, 5-LOX, and BchE Inhibitors” (Molecules, 2023).
Like-named read-outs stand apart in the source and are kept apart here.

Key:
5-LOX [1] = target: T1, 5-LOX (Homo sapiens, UniProt P09917); conditions: read-out: inhibitory activity against 5-LOX; cited from earlier work
T1 construct: purchased BioVision K980-100
T1 sequence (P09917 1-674): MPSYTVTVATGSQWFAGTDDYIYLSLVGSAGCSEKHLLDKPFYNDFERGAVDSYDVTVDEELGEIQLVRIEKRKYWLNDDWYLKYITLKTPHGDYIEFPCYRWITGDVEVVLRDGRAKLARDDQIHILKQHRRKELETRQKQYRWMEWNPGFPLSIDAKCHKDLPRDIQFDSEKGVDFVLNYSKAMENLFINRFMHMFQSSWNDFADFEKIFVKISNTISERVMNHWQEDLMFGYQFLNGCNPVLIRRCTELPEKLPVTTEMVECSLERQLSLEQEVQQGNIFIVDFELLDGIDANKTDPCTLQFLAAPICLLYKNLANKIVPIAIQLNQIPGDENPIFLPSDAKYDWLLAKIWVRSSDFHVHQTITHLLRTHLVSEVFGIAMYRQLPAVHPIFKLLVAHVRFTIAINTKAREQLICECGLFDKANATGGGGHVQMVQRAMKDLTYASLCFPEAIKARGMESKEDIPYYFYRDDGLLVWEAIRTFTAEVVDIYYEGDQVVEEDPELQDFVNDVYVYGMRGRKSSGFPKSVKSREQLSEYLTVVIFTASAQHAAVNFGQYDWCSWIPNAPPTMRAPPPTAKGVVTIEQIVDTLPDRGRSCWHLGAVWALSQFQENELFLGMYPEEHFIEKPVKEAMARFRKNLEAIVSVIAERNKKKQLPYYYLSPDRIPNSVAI

COX-1 = conditions: read-out: inhibitory activity against COX-1; cited from earlier work
COX-2 = target: T2, COX-2 (Homo sapiens, UniProt P35354); experiment: COX-2 inhibition assay (fluorometric inhibitor screening kit); format: biochemical
T2 construct: purchased BioVision K547-100
T2 sequence (P35354 18-604): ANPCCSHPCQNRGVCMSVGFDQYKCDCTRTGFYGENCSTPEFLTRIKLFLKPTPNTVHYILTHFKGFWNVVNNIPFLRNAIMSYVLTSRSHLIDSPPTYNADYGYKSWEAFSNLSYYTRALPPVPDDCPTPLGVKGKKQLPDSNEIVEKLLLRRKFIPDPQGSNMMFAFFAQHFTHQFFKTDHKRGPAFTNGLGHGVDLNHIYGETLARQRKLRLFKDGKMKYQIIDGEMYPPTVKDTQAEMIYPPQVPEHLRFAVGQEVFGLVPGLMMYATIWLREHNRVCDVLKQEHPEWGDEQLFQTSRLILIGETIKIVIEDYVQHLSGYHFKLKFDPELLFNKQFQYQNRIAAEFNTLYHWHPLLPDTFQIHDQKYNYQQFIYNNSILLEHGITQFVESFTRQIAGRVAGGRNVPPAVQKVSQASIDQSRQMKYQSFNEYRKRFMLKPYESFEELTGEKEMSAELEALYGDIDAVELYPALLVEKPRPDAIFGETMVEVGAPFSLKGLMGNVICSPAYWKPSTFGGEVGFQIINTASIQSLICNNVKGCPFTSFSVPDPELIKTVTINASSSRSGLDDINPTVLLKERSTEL
Description: The fluorometric approach was used to measure the in vitro cyclooxygenase (COX-2) inhibitory activity. It was carried out in accordance with the COX-2 Inhibitor Screening Kit methodology, as advised by the manufacturer (CAT # K547-100, BioVision, Milpitas, CA, USA). The sample solutions were prepared in the manner described before providing twelve concentrations (ranging from […]).
(§1) The IC50 values were represented as means (± SD) from triplicates of two independent experiments.

5-LOX [2] = target: T1, 5-LOX; experiment: 5-LOX inhibition assay (fluorometric inhibitor screening kit); format: biochemical
Description: The fluorometric approach was used to test the 5-LOX enzyme, in accordance with the manufacturer’s instructions, by using the enzyme’s inhibitor screening kit (CAT # K980-100, BioVision, Milpitas, CA, USA) to evaluate the 5-lipoxygenase (5-LOX) inhibitory activity in vitro [18, 45, 46]. Twelve concentrations (ranging from […]) were prepared by serial dilution method.
as §1

[3] = target: T3, horse serum butyrylcholinesterase (Equine BchE) (Equus caballus, UniProt P81908); experiment: BchE inhibition assay; format: biochemical
T3 construct: using horse serum butyrylcholinesterase (Equine BchE; CAS#9001-08-5); tissue CAS#9001-08-5; host or cells: horse serum
T3 sequence (P81908 whole entry): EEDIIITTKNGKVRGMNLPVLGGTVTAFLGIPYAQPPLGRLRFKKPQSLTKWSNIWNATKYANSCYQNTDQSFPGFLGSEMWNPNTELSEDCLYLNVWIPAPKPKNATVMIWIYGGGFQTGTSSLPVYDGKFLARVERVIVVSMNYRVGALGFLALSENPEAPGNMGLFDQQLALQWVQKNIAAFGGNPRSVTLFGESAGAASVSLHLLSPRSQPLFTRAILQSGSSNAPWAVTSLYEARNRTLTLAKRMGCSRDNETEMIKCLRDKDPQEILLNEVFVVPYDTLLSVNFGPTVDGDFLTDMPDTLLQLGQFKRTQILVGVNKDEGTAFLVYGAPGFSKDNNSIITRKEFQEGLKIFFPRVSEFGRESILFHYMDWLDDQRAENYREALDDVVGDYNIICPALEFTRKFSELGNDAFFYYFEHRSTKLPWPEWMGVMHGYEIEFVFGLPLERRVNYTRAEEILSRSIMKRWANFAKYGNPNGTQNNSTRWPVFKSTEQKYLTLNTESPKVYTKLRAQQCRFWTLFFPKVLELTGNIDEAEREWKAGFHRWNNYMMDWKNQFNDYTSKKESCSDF
Description: The in vitro butyrylcholinesterase (BchE) inhibitory activity of the isolated polyacetylenes was determined according to the published method, using horse serum butyrylcholinesterase (Equine BchE; CAS#9001-08-5) with a slight change. To create a useful stock solution, the materials were dissolved in DMSO. The maximal DMSO concentration was 0.1%, and twelve sample concentrations (ranging from […]) were created by two-fold serial dilution in Tris buffer (pH 8.0).
as §1

C/C=C/C#CC#C/C=C/C=C\CCOC(=O)/C=C/c1ccc(O)c(OC)c1 [(3Z,5E,11E)-tridecatriene-7,9-diynyl-1-O-(E)-ferulate]
IC50 (5-LOX [1]): 3.4 µM
IC50 (COX-1): 1.1 µM

C/C=C/C#CC#C/C=C/CC[C@H](O)CCO [Compound 2, (3S)-(6E,12E)-tetradecadiene-8,10-diyne-1,3-diol]
IC50 (COX-2): > 200 µM
IC50 against COX-2 (COX-2; in vitro, mean ± SD, triplicates of two independent experiments): inactive
IC50 (5-LOX [2]): > 200 µM
IC50 [3]: 179 ± 15.6 µM

C/C=C/C#CC#C/C=C/CC[C@@H](CCO)O[C@@H]1O[C@H](CO)[C@@H](O)[C@H](O)[C@H]1O [Compound 4, (3S)-(6E,12E)-tetradecadiene-8,10-diyne-1-ol-3-O-β-D-glucopyranoside]
IC50 (COX-2): 146 ± 7.7 µM
IC50 (5-LOX [2]): 34.6 ± 4.26 µM
IC50 [3]: 14.8 ± 1.55 µM

CC(Cc1ccc(O)c(O)c1)C(C)Cc1ccc(O)c(O)c1 (stereo not shown) [NDGA, nordihydroguaiaretic acid, reference compound]
IC50 (COX-2; in vitro, mean ± SD, triplicates of two independent experiments, read-out: IC50 against COX-2): 4.7 ± 0.76 µM
